Laboratory results: article PMC3828267 (PLoS ONE, 2013)
Values joined by “and” are separate entries in the source; they are usually repeats but may differ in a detail not shown here. Equal entries are not always repeated. Where two headings read alike, the source gives them in different places.

Key:
α7 AChRs [1] = biological target: T1, α7 AChRs (Homo sapiens, UniProt P36544); assay: Chronic desensitization (16 h agonist, then ACh response) and calculated smoldering activation, α7 cell line; type: cell-based; design: expressed in transfected cells; grown in VPA and PBA; conditions: for Hill (desensitization) / Intercept of Activation and Desensitization Curves: α7: 10 µM ACh
Description: (§1) To measure desensitization, plates were prepared as for agonist assays. Sixteen hours prior to the assay, serial dilutions of agonists, prepared in regular growth medium, were added to the plates. One hour before the assay, the membrane potential-sensitive fluorescent dye with 0.5 µM atropine was added to the wells. […] Each data point represents the average of peak values for individual dose response curves from 4–8 wells.
(§2) Data were graphed using GraphPad Prism software. Non-linear models (sigmoidal dose-response with variable slope or two site competition) were used to fit the concentration response curves. The EC50 and IC50 were calculated from the curves. Kaleidagraph software was used to determine Hill slopes and standard errors of the EC50 and IC50.
(§3) Responses for the three different AChRs are shown in Figures 3, 4, 5, 6, along with the dose response curves for activation (the same as shown in Figure 2). The range of concentrations at which both sustained activation and desensitization can occur (“smoldering activation”) was calculated by multiplying the acute response to agonists at each concentration by the fractional response remaining after desensitization.

[2] = cited from earlier work
α3β4 AChRs [3] = biological target: T2, α3β4 AChRs (Homo sapiens, UniProt P30926+P32297); assay: Acute activation, FLEXStation membrane potential dye, α3β4 cell line; type: cell-based
T2 construct: expressed in transfected cells
Description: (§4) The parental cell line used for transfections was tsA201, derived from the human embryonic kidney cell line (HEK) 293 [33]. […] The cell line permanently expressing α3β4 AChRs has been described, [34]. A stable cell line expressing functional α7 AChRs was prepared by initially transfecting the tsA201 cell line with cDNA for α7 and subsequently transfecting with cDNA for the AChR-selective chaperone, human RIC-3.
(§5) Responses to nicotinic agonists were determined using a FLEXStation microplate fluorometer (Molecular Devices, Sunnyvale, CA) as described. For cell lines expressing α4β2 and α3β4 AChRs, the cells were plated at 10^5 cells/ml (100 µl/well) in black-walled clear-bottom 96 well plates (Costar, Fisher Scientific, Pittsbugh, PA), and incubated for 48 hours prior to assaying responses to various nicotinic agonists. The α7/RIC-3 expressing cells were plated at 5×10^5/ml in black-walled clear-bottom 96 well BioCoat plates (BD Biosciences, Franklin Lakes, NJ) in the continued presence of VPA and PBA, with the addition of 5% human AB serum (Pel-Freez Biologicals, Rogers, AR) to further increase expression of α7 [35]. The cells were then grown for 24 hours prior to the assay.
(§6) To measure responses to various nicotinic agonists, 100 µl of a fluorescent dye which is sensitive to changes in membrane potential (Molecular Devices) was added to the wells. The dye was prepared according to the manufacturer’s instructions, with the addition of atropine (0.5 µM) to block muscarinic responses. The plates were then incubated at 37°C for one hour prior to the assay. Serial dilutions of agonists were then prepared in Hanks Balanced Salt Solution (HBSS) in V-shaped 96-well plates (Fisher Scientific Co, Pittsburgh, PA). Fluorescent responses were measured in the FLEX Station at 25°C, with an excitation wavelength of 530 nm and an emission wavelength of 565 nm. Various agonists (50 µl) were added after the first 20 seconds and responses were followed for 60–120 seconds.
as §2

α7 AChRs [4] = biological target: T1, α7 AChRs; assay: Acute activation, FLEXStation membrane potential dye, α7/RIC-3 cell line; type: cell-based; design: expressed in transfected cells; grown in VPA and PBA
Description: as §4, §5, §6, §2

human α4β2 AChRs [5] = biological target: T3, human α4β2 AChRs (Homo sapiens, UniProt P17787+P43681); assay: Chronic desensitization (16 h agonist, then ACh response) and calculated smoldering activation, α4β2 cell line; type: cell-based; conditions: for Extent of desensitization of α4β2 AChRs to ACh: prolonged exposure, up to high concentrations; for Emax at 1 µM: 1 µM varenicline, read-out: Smoldering activation, % of the maximum response; for AChRs desensitized: varenicline 1 µM
T3 construct: expressed in transfected cells
Description: as §1, §2, §3

human α4β2 AChRs [6] = biological target: T3, human α4β2 AChRs; assay: Acute activation, FLEXStation membrane potential dye, α4β2 cell line; type: cell-based; conditions: for Agonist type (full or partial): α4β2, mixture of stoichiometries
Description: as §4, §5, §6, §2

α3β4 AChRs [7] = biological target: T2, α3β4 AChRs; assay: Chronic desensitization (16 h agonist, then ACh response) and calculated smoldering activation, α3β4 cell line; type: cell-based; conditions: for Hill (desensitization) / Intercept of Activation and Desensitization Curves: α3β4: 1.0 mM ACh
Description: as §1, §2, §3

(α4β2)2α4 AChRs = conditions: (α4β2)2α4, concatenated AChRs in Xenopus oocytes; cited from earlier work
(α4β2)2β2 AChRs = biological target: T4, (α4β2)2β2 AChRs (Homo sapiens, UniProt P17787+P43681); conditions: (α4β2)2β2, concatenated AChRs in Xenopus oocytes; cited from earlier work
T4 construct: expressed in transfected cells

[8] = cited from earlier work; remark: listed apart in the source
[9] = α4β2: 3 µM ACh ((α4β2)2β2 stoichiometry), centre of smoldering activation
[10] = α4β2: 3 µM ACh, first component
[11] = α4β2: 100 µM ACh (both stoichiometries)
[12] = α4β2: 100 µM ACh, first component
[13] = α4β2, higher sensitivity component or monophasic curve
[14] = α4β2, lower sensitivity component

T3 sequence (P43681 29-627 limits assumed): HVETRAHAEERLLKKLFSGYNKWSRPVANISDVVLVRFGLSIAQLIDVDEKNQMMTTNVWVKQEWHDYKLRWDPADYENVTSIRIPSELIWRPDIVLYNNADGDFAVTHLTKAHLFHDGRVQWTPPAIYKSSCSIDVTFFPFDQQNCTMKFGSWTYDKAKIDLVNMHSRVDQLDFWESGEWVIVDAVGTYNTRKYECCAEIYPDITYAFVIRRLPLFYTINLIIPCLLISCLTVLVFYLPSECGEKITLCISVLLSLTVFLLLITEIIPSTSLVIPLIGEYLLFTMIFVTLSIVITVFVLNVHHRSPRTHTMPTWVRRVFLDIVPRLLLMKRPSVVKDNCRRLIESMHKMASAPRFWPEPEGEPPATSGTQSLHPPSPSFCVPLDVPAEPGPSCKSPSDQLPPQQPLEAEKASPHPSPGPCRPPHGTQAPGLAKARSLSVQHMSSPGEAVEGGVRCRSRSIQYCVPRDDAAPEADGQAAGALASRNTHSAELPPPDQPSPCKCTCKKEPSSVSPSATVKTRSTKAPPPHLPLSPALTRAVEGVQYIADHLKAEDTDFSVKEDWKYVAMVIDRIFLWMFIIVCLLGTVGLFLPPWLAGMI
T3 sequence (P17787 26-502): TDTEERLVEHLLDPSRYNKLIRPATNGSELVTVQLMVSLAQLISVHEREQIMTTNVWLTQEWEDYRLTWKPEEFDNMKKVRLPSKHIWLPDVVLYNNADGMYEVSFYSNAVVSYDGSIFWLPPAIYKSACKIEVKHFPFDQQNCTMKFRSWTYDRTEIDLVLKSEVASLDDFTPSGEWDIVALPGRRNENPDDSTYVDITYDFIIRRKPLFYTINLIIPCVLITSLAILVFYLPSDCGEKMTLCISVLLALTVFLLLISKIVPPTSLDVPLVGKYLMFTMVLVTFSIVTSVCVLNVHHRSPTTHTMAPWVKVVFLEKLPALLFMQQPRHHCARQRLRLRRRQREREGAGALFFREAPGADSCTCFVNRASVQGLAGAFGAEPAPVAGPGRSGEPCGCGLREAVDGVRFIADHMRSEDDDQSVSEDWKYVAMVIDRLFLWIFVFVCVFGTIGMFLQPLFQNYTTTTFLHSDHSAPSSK
T2 sequence (P32297 32-505): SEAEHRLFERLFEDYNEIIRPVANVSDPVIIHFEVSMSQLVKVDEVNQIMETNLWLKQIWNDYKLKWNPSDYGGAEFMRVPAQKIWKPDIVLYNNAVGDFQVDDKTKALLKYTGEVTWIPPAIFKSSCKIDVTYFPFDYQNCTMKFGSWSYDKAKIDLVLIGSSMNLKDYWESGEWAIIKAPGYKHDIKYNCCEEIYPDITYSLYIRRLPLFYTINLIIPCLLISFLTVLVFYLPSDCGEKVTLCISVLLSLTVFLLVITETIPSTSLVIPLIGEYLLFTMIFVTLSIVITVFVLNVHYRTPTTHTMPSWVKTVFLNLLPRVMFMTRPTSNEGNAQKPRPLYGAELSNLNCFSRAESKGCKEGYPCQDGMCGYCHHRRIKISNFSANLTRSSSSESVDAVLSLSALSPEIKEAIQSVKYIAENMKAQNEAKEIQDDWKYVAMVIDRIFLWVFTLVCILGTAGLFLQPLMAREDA
T2 sequence (P30926 22-498): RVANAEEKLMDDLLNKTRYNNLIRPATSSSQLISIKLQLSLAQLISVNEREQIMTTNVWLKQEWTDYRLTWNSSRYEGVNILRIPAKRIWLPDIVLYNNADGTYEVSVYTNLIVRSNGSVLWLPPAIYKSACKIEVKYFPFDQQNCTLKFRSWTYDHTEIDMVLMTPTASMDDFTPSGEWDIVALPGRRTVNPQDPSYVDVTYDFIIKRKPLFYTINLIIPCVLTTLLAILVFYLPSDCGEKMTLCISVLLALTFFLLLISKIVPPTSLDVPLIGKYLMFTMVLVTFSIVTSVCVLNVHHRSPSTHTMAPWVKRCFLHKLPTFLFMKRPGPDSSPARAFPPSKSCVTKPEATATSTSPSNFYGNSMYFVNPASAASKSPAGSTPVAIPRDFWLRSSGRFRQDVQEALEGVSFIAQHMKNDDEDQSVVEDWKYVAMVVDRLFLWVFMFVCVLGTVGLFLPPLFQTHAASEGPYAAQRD
T1 sequence (P36544 23-502): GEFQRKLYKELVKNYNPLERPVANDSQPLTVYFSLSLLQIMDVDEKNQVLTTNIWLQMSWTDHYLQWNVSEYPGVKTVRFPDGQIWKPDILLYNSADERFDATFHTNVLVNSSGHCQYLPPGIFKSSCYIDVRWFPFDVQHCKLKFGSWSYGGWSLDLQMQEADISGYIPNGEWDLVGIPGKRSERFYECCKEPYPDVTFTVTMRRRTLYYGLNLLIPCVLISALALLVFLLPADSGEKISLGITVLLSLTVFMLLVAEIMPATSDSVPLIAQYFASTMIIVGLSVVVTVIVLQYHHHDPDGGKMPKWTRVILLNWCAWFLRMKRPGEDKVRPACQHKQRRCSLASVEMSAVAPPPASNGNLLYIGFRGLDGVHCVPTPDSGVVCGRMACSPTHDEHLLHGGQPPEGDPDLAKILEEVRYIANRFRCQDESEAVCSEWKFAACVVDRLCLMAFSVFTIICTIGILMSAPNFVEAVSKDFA
T4 sequence (P43681 29-627 limits assumed): as the sequence (P43681 29-627 limits assumed) above
T4 sequence (P17787 26-502): as the sequence (P17787 26-502) above

SMILES	Hill (desensitization) (α7 AChRs [1])	Intercept of Activation and Desensitization Curves (α7 AChRs [1]) [µM]	Hill (activation) (α3β4 AChRs [3]; α3β4)	Hill (activation) (α7 AChRs [4]; α7)	Intercept of Activation and Desensitization Curves (human α4β2 AChRs [5]; [9]) [µM]	Hill (desensitization) (human α4β2 AChRs [5]; [10])	Intercept of Activation and Desensitization Curves (human α4β2 AChRs [5]; [11]) [µM]	Hill (desensitization) (human α4β2 AChRs [5]; [12])	Agonist type (full or partial) (human α4β2 AChRs [6])	Hill (activation) (human α4β2 AChRs [6]; [13])	Hill (activation) (human α4β2 AChRs [6]; [14])	Hill (desensitization) (α3β4 AChRs [7])	Intercept of Activation and Desensitization Curves (α3β4 AChRs [7]) [µM]	Extent of desensitization of α4β2 AChRs to ACh (human α4β2 AChRs [5])	further results
CN1CCC[C@H]1c1cccnc1 [Nicotine, nicotine]	−3.2	1.7	1.1	1.7	0.13	−1.0	1.82	−1.2	full agonists	1.8	2.5	−0.9	8.7	–	Concentrations found in the blood of smokers [2]: 58 to 340 nM; Emax at 0.1 µM (human α4β2 AChRs [5]; read-out: Calculated smoldering activation, % of maximum response, (α4β2)2α4 stoichiometry, 0.1 µM nicotine): 18%; Emax at 0.1 µM (human α4β2 AChRs [5]; read-out: Calculated smoldering activation, % of maximum response, (α4β2)2β2 stoichiometry, 0.1 µM nicotine): 6%; Emax at […] (human α4β2 AChRs [5]; read-out: Calculated smoldering response, % of maximum response, (α4β2)2α4 stoichiometry, nicotine concentration of […]): 54%
CC(=O)OCC[N+](C)(C)C [ACh, acetylcholine]	–	–	1.8	2.4	–	–	–	–	full agonists	1.5	1.3	–	–	–	Amplitude of response to saturating concentration (α3β4 AChRs [3]; α3β4, saturating ACh (1.0 mM)): 161,000+/−14,000 relative fluorescence units; Time to maximum response after agonist application (α7 AChRs [4]; α7, saturating ACh): ≤ 5 s; Amplitude of response to saturating concentration (α7 AChRs [4]; α7, saturating ACh (10 µM)): 54,000+/−3000 relative fluorescence units and 54,00+/−3000 relative fluorescence units; Amplitude of response to saturating concentration (human α4β2 AChRs [6]; α4β2, saturating ACh (300 µM)): 167,000+/−18,000 relative fluorescence units
O=c1cccc2n1C[C@@H]1CNC[C@H]2C1 [Cytisine, cytisine]	−1.4	2.1	1.3	4.3	0.45	−1.1	0.74	−1.2	partial agonist	0.9	–	−0.6	4.1	fully desensitizing	IC50 (α7 AChRs [1]): 4200 ± 740 nM; EC50 (α3β4 AChRs [3]): 7500 ± 1100 nM; Agonist type (full or partial) (α3β4 AChRs [3]; α3β4): full agonist; Efficacy (%) (relative to ACh) (α3β4 AChRs [3]; α3β4): 100%; Agonist type ((α4β2)2α4 AChRs): partial agonist; EC50 (α7 AChRs [4]): 2000 ± 60 nM; Agonist type (full or partial) (α7 AChRs [4]; α7): full agonist; Efficacy (%) (relative to ACh) (α7 AChRs [4]; α7): 100%; IC50 (human α4β2 AChRs [5]; Desensitization IC50, α4β2: 3 µM ACh, overnight (16 h) agonist, first (more sensitive) component): 1 ± 0.5 nM; IC50 (human α4β2 AChRs [5]; Desensitization IC50, α4β2: 3 µM ACh, overnight agonist, second component): 250 ± 100 nM; IC50 (human α4β2 AChRs [5]; Desensitization IC50, α4β2: 100 µM ACh, overnight (16 h) agonist, first (more sensitive) component): 3 ± 0.3 nM; IC50 (human α4β2 AChRs [5]; Desensitization IC50, α4β2: 100 µM ACh, overnight agonist, second component): 20000 nM; Concentration from which the desensitization dose response curve shows a plateau (human α4β2 AChRs [5]; α4β2, assayed with 100 µM ACh): above 10 nM; Hill (desensitization) (human α4β2 AChRs [5]; α4β2: 3 µM ACh, second component): −1.1; Hill (desensitization) (human α4β2 AChRs [5]; α4β2: 100 µM ACh, second component): −0.8; EC50 (human α4β2 AChRs [6]; Activation EC50, α4β2 cell line, mixed stoichiometries, higher sensitivity component where two-site fit, else monophasic): 5500 ± 800 nM; Efficacy (%) (relative to ACh) (human α4β2 AChRs [6]; α4β2): 34%; Agonist type ((α4β2)2β2 AChRs): inactive; IC50 (α3β4 AChRs [7]): 1300 ± 500 nM
c1cnc2cc3c(cc2n1)[C@@H]1CNC[C@H]3C1 [Varenicline, varenicline]	−2.6	0.4	1.4	3.5	0.16	−0.6	0.93	−1.0	partial agonists	1.1	1.8	−1.1	2.1	fully desensitizing	Peak levels ([8]; after 14 days on standard dose of 1 mg twice daily): 0.48 µM; Peak blood levels ([8]; humans, after a 1 mg dose): 0.1 µM; Levels reached in patients ([8]; patients on therapeutic doses): 400 nM; Emax at 1 µM (human α4β2 AChRs [5]; (α4β2)2α4 AChRs): 23%; AChRs desensitized (human α4β2 AChRs [5]; (α4β2)2α4 AChRs): ~50%; Emax at 1 µM (human α4β2 AChRs [5]; (α4β2)2β2 AChRs): 4.3%; AChRs desensitized (human α4β2 AChRs [5]; (α4β2)2β2 AChRs): > 90%
